Data published in patent US20060069132A1, “Azolecarboxamide herbicides” (priority 2004, published 2006).

Legend:
windgrass = test: Test F pre-/postemergence herbicide test; assay type: in vivo, Apera spica-venti; settings: 125 g ai/ha
Source text: Seeds of plant species selected from annual blugrass (Poa annua L.), blackgrass (Alopecurus myosuroides Huds.), catchweed bedstraw (Gallium aparine L.), common chickweed (Stellaria media (L.) Vill./Cyr.), downy bromegrass (Bromus tectorum L.), green foxtail (Setaria viridis (L.) Beauv.), Italian ryegrass (Lolium multiflorum Lam.), kochia (Kochia scoparia (L.). Schrad.), lambsquarters (Chenopodium album L.), littleseed canarygrass (Phalaris minor Retz.), pigweed (Amaranthus retroflexus L.), Russian thistle (Salsola kali L. ssp. Ruthenica (Iljin) Soo), wild buckwheat (Polygonum convolvulus L.), wild mustard (Sinapis arvensis L.), wild oat (Avena fatua L.), windgrass (Apera spica-venti (L.) Beauv.), winter barley (Hordeum vulgare L.), and wheat (Triticum aestivum L.) were planted and treated preemergence with test chemicals formulated in a non-phytotoxic solvent mixture which included a surfactant.
At the same time, plants selected from these crop and weed species were treated with postemergence applications of some of the test chemicals formulated in the same manner. Plants ranged in height from 2 to 18 cm (1- to 4-leaf stage) for postemergence treatments. Treated plants and controls were maintained in a greenhouse for 12 to 14 days, after which time all species were compared to controls and visually evaluated. […]

lambsquarters (CHEAL) = test: Test J Compounds 2 and 6 alone and in combination with other herbicides, foliage spray; assay type: in vivo, Chenopodium album; parameters: key: % herbicidal effect (observed); settings: applied alone
How it was run: (§1)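 Greenhouse plants grown 7–11 days to 2–18 cm (1- to 4-leaf stage) were foliage-sprayed at 541 L/ha with compounds alone or mixed with atrazine, terbacil, hexazinone, diuron or paraquat in aqueous solvent with nonionic surfactant. Three replicates; injury rated visually 15 days after treatment, 0–100 versus untreated controls.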

pigweed (AMARE) = test: as above; assay type: in vivo, Amaranthus retroflexus; parameters: key: 0 = no effect, 100 = complete control; settings: applied alone
How it was run: as §1

SMILES	Plant response rating (0-100), Windgrass (windgrass; Postemergence)	Plant response rating (0-100), Windgrass (windgrass; Preemergence)	CHEAL Obsd. (lambsquarters (CHEAL); 62 g a.i./ha)	CHEAL Obsd. (lambsquarters (CHEAL); 125 g a.i./ha)	AMARE Obsd. (pigweed (AMARE); 62 g a.i./ha)	AMARE Obsd. (pigweed (AMARE); 125 g a.i./ha)
CCc1nn(C(C)(C)C)cc1C(=O)Nc1cc(C(=O)N(CC)CC)ccc1F [Compound 223]	50	100	–	–	–	–
CCNC(=O)c1ccc(F)c(NC(=O)c2cc(C(C)(C)C)nn2CC)c1 [Compound 2, 3-(1,1-dimethylethyl)-1-ethyl-N-[5-[(ethylamino)carbonyl]-2-fluorophenyl]-1H-pyrazole-5-carboxamide]	–	–	40	55	47	68
